Measurements reported in patent US20110230433A1, “COMPOSITIONS AND METHODS FOR TREATMENT OF CANCER” (UNIVERSITY OF WASHINGTON, priority 2010, published 2011).

What was measured:
[1] = system: SW480; assay: Viability after 48 hr culture with analog, crystal violet staining; format: cell-based, human; conditions: SW480 (mismatch repair proficient)
Method: (§1) The concentration of each analog used in the serial transfer experiments can be 50% less than the highest dose at which there is no reduction in viability. Analogs that fail to be toxic can be used at 100 μM.
(§2) In Table 2, mismatch repair proficient and deficient cell lines were assayed for viability after growing for 48 hr with the indicated analogs in nM to mM concentrations.

[2] = system: HCT116; assay: as above; format: cell-based, human; conditions: HCT116 (mismatch repair deficient)
Method: as §1, §2

[3] = system: E. coli; conditions: E. coli lacking repair of 8-OH-dG; cited from earlier work
[4] = system: DNA; conditions: cited from earlier work
[5] = system: dG; conditions: cited from earlier work
[6] = system: HIV; conditions: HIV in tissue culture; cited from earlier work
[7] = system: DNA polymerases; conditions: copying past site specific residues by DNA polymerases in vitro; cited from earlier work
[8] = system: human cells deficient in O^6-methyl transferase; conditions: compared to correct base-pairing with cytidine; cited from earlier work

Row | Structure (SMILES) | Highest dose without decreased viability [1] | Highest dose without decreased viability [2] | also measured
1 | Nc1ncc2[nH]cnc2n1 [2′-aminopurine, 2-Aminopurine] | 0.00033 mM | 0.00033 mM | –
2 | Nc1ncc2ncn([C@H]3C[C@H](O)[C@@H](CO)O3)c2n1 [2′-deoxyaminopurine, 2-Amino-9-(β-D-2′-deoxyribfuranosyl)purine] | >3.3 mM | >3.3 mM | –
3 | OC[C@H]1O[C@@H](n2cnc3c(O)ncnc32)C[C@@H]1O [2′-deoxyinosine] | >3.3 mM | >3.3 mM | –
4 | Nc1nc(=O)n([C@H]2C[C@H](O)[C@@H](CO)O2)cc1O [5-hydroxy-2′-deoxycytidine] | 0.3 mM | 0.03 mM | –
5 | Nc1nc2c(nc(O)n2[C@H]2C[C@H](O)[C@@H](CO)O2)c(=O)[nH]1 [8-OH-dG, 8-hydroxy deoxyguanosine] | – | – | increase in mutagenesis [3]: 1000 fold
6 | CCN(N=O)C(N)=O [ENU, ethylnitrosourea, reference compound] | 0.6 mg/mL | 1.1 mg/mL | –
7 | OC[C@H]1O[C@@H](n2cnc3c2ncn2ccnc32)C[C@@H]1O [Etheno-dA, 1,N6-etheno dA] | – | – | frequency of non-complementary base-pairs [4]: approximately 10%
8 | O=c1n([C@H]2C[C@H](O)[C@@H](CO)O2)ccc2nccn12 [Etheno-dC, N^3,4-etheno dC] | – | – | frequency of non-complementary base-pairs [4]: approximately 10%
9 | O=c1[nH]c2nccn2c2c1ncn2C1C[C@H](O)[C@@H](CO)O1 (some centres unmarked) [Etheno-dG, N^2,3-etheno dG] | – | – | frequency of non-complementary base-pairs [4]: approximately 10%
10 | NC1=NC(=O)N([C@H]2C[C@H](O)[C@@H](CO)O2)CN1 [KP-1212, reference compound] | 3.3 mM | 3.3 mM | –
11 | CCOc1nc(=O)n([C@H]2C[C@H](O)[C@@H](CO)O2)cc1C [O^4-ethyl-2′-deoxythymidine] | >3.3 mM | 0.33 mM | frequency of mispairing with dG [5]: approximately 25%
12 | COc1nc(=O)n([C@H]2C[C@H](O)[C@@H](CO)O2)cc1C [O^4-methyl-2′-deoxythymidine] | >3.3 mM | >3.3 mM | induction of lethal mutagenesis [6]: induce lethal mutagenesis of HIV; frequency of mispairing with dG [5]: approximately 25%; increase in mis-incorporation [7]: 20%
13 | CCOc1nc(N)nc2c1ncn2[C@H]1C[C@H](O)[C@@H](CO)O1 [O^6-ethyl dG] | – | – | frequency of base-pairing with thymidine [8]: 11%
14 | COc1nc(N)nc2c1ncn2[C@H]1C[C@H](O)[C@@H](CO)O1 [O^6-methyl dG] | – | – | frequency of base-pairing with thymidine [8]: 19%
